In BindingDB's records for patent US20240148821 (Chugai Seiyaku Kabushiki Kaisha, 2024):
Numbered stars: 1 amine (or outer) side, 2 acyl side, 3 side chain; on linkers, the order of the positions; unused ones are H or OH. Bridge positions count the residues as written; N and C are the ends. Square brackets hold non-standard residues; d marks the D form. Peptide text beside a SMILES is read from it. * marks the point of attachment. ξ: configuration not given here. hPhe(3,5-F2-4-CF3) = N[C@@H](CCc1cc(F)c(C(F)(F)F)c(F)c1)C(=O)O; hPhe(3-Cl-4-CF3) = N[C@@H](CCc1ccc(C(F)(F)F)c(Cl)c1)C(=O)O; hPhe(3-F,4-CF3) = N[C@@H](CCc1ccc(C(F)(F)F)c(F)c1)C(=O)O; NMeGly(COCH2cHex) = CN[C@H](C(=O)O)C(=O)CC1CCCCC1; X54 = COc1cc(CC[C@H](N[*:1])C(=O)[*:2])cc(Cl)c1Cl; X63 = O=C([C@H](CCc1ccc(C(F)F)c(F)c1)N[*:1])[*:2]; X96 = O=C([C@H](CCc1ccc(C(F)(F)F)nc1)N[*:1])[*:2]; Piperazinyl(4-(3-oxetanyl)) = C1OCC1N1CCN(*)CC1; X55 = Cn1ccc2ccc(CC[C@H](N[*:1])C(=O)[*:2])cc21; X44 = O=C([C@H](CCc1ccc2cccnc2c1)N[*:1])[*:2]; X85 = O=C([C@H](CCc1ccc2ncccc2c1)N[*:1])[*:2]; NMeGly(cPent) = CN[C@H](C(=O)O)C1CCCC1; NMeCha = CN[C@@H](CC1CCCCC1)C(=O)O; cisHyp = O=C(O)[C@@H]1C[C@H](O)CN1; ξPro(4,4-F2) = O=C(O)C1CC(F)(F)CN1; Hyp = O=C(O)[C@@H]1C[C@@H](O)CN1; NMeChg = CN[C@H](C(=O)O)C1CCCCC1; NMeI = CC[C@H](C)[C@H](NC)C(=O)O; NMeD = CN[C@@H](CC(=O)O)C(=O)O; NMeL = CN[C@@H](CC(C)C)C(=O)O; d(β3hA) = C[C@@H](N)CC(=O)O; NMeA = CN[C@@H](C)C(=O)O; Piperidide = C1CCN(*)CC1; Pyrrolidide = C1CCN(*)C1; Ac5c = NC1(C(=O)O)CCCC1; Aze = O=C(O)[C@@H]1CCN1; Ac4c = NC1(C(=O)O)CCC1; ξP = O=C(O)C1CCCN1; Sar = CNCC(=O)O

Each compound was assayed against GTPase KRas (G12D) and Son of Sevenless Homolog 1 (SOS) (Homo sapiens, UniProt P01116, G12D) (assay: AlphaScreen Assay).
GTPase KRas (G12D) and Son of Sevenless Homolog 1 (SOS), sequence (P01116 whole entry G12D): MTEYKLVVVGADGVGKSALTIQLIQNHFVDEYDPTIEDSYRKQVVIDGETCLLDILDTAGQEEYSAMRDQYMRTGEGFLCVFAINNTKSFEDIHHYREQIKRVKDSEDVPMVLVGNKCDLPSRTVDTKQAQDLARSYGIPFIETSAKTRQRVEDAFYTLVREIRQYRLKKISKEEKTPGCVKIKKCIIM
GTPase KRas (G12D) and Son of Sevenless Homolog 1 (SOS), sequence (Q07889 whole entry, further chain): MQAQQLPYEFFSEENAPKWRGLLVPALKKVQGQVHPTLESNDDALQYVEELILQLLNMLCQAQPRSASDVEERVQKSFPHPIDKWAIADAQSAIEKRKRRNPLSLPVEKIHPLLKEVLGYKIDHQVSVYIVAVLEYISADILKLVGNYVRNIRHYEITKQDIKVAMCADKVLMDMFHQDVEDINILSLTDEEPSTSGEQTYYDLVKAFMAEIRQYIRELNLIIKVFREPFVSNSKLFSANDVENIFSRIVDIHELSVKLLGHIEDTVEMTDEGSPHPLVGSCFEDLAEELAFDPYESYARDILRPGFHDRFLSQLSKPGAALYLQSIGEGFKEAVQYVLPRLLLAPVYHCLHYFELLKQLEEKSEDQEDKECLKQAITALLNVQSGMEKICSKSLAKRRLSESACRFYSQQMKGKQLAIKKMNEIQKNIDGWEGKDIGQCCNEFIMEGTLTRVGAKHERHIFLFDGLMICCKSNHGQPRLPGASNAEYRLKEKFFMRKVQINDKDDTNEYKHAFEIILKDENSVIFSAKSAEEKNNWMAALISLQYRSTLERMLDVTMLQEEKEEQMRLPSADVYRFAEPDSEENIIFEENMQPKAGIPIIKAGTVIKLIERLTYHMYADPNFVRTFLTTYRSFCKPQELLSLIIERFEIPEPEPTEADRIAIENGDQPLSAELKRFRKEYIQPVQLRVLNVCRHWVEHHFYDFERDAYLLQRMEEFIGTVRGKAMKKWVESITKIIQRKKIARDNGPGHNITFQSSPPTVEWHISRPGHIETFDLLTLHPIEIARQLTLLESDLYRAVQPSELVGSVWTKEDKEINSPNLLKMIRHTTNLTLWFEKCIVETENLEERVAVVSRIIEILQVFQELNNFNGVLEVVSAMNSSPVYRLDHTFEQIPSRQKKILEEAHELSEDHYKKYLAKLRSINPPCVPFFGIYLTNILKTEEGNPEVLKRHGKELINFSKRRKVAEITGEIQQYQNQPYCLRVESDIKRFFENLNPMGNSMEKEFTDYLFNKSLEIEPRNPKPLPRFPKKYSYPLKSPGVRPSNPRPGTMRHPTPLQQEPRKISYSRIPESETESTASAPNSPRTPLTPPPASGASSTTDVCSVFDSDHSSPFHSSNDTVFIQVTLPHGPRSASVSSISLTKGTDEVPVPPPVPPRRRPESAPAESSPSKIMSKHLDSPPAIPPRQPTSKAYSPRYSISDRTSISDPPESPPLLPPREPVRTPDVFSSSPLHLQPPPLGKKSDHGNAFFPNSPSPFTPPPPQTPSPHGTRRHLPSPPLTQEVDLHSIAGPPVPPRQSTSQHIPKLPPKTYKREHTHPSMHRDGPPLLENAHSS
Experimental: Protein-protein interaction inhibition (PPI) between Kras and SOS1 was measured by energy transfer from nickel-conjugated donor beads to streptavidin-conjugated acceptor beads using biotin-tagged human Kras expressed in E. coli and loaded with GDP after purification and His-tagged human SOS1 enzyme. This measurement utilizes the phenomenon in which donor beads are irradiated with light at 680 nm, such that energy is transferred to acceptor beads through singlet oxygen and light at 520-620 nm is detected from the acceptor beads.

Compound | IC50
CC[C@H](C)[C@@H]1NC(=O)[C@H](CC(C)C)N(C)C(=O)C[C@@H](C(=O)N2CCCCC2)N(C)C(=O)[C@H](CC(C)C)N(C)C(=O)C2(CCCC2)NC(=O)[C@@H]2C[C@H](O)CN2C(=O)[C@H](CCc2ccc(C(F)(F)F)c(F)c2)NC(=O)CN(C)C(=O)[C@H](CC2CCCCC2)N(C)C(=O)CN(C)C(=O)CN(C)C1=O [US20240148821, Compound 544] ([NMeL]I[Sar][Sar][NMeCha][Sar][hPhe(3-F,4-CF3)][cisHyp][Ac5c][NMeL][NMeD]-Piperidide; lactam N-11) | 2.2 nM
CC[C@H](C)[C@@H]1NC(=O)[C@H](CC(C)C)N(C)C(=O)C[C@@H](C(=O)N2CCN(C3COC3)CC2)NC(=O)[C@H]([C@@H](C)CC)N(C)C(=O)C2(CCCC2)NC(=O)C2CCCN2C(=O)[C@H](CCc2ccc(C(F)(F)F)c(Cl)c2)NC(=O)CN(C)C(=O)[C@H](C(=O)CC2CCCCC2)N(C)C(=O)CN(C)C(=O)CN(C)C1=O (stereo partly drawn) [US20240148821, Compound 1191] ([NMeL]I[Sar][Sar][NMeGly(COCH2cHex)][Sar][hPhe(3-Cl-4-CF3)][ξP][Ac5c][NMeI]D-{Piperazinyl(4-(3-oxetanyl))}; lactam N-11) | 6.7 nM
CC[C@H](C)[C@@H]1NC(=O)[C@H](CC(C)C)N(C)C(=O)C[C@@H](C(=O)N2CCCC2)N(C)C(=O)[C@H](C2CCCCC2)N(C)C(=O)C2(CCC2)NC(=O)C2CC(F)(F)CN2C(=O)[C@H](CCc2cc(F)c(C(F)(F)F)c(F)c2)NC(=O)CN(C)C(=O)[C@H](C(=O)CC2CCCCC2)N(C)C(=O)CN(C)C(=O)CN(C)C1=O (stereo not given in full) [US20240148821, Compound 1192] ([NMeL]I[Sar][Sar][NMeGly(COCH2cHex)][Sar][hPhe(3,5-F2-4-CF3)][ξPro(4,4-F2)][Ac4c][NMeChg][NMeD]-Pyrrolidide; lactam N-11) | 0.39 nM
CC[C@H](C)[C@@H]1NC(=O)[C@H](CC(C)C)N(C)C(=O)C[C@@H](C)NC(=O)[C@H](CC(C)C)N(C)C(=O)C2(CCCC2)NC(=O)[C@@H]2C[C@@H](O)CN2C(=O)[C@H](CCc2ccc(C(F)(F)F)c(F)c2)NC(=O)CN(C)C(=O)[C@H](CC2CCCCC2)N(C)C(=O)CN(C)C(=O)CN(C)C1=O [US20240148821, Compound 1483] (cyclo([Ac5c][NMeL][d(β3hA)][NMeL]I[Sar][Sar][NMeCha][Sar][hPhe(3-F,4-CF3)][Hyp])) | 34 nM
CC[C@H](C)[C@@H]1NC(=O)[C@H](CC(C)C)N(C)C(=O)C[C@@H](C(=O)N2CCCCC2)N(C)C(=O)[C@H](C2CCCC2)N(C)C(=O)C2(CCCC2)NC(=O)[C@@H]2CCCN2C(=O)[C@H](CCc2ccc3ccn(C)c3c2)NC(=O)CN(C)C(=O)[C@H](CC2CCCCC2)N(C)C(=O)[C@@H]2CCN2C(=O)[C@H](C)N(C)C1=O [US20240148821, Compound 2065] ([NMeL]I[NMeA][Aze][NMeCha][Sar][X55]P[Ac5c][NMeGly(cPent)][NMeD]-Piperidide; lactam N-11) | 16 nM
CC[C@H](C)[C@@H]1NC(=O)[C@H](CC(C)C)N(C)C(=O)C[C@@H](C(=O)N2CCCCC2)N(C)C(=O)[C@H](C2CCCC2)N(C)C(=O)C2(CCCC2)NC(=O)[C@@H]2CCCN2C(=O)[C@H](CCc2ccc3ncccc3c2)NC(=O)CN(C)C(=O)[C@H](CC2CCCCC2)N(C)C(=O)[C@@H]2CCN2C(=O)[C@H](C)N(C)C1=O [US20240148821, Compound 2070] ([NMeL]I[NMeA][Aze][NMeCha][Sar][X85]P[Ac5c][NMeGly(cPent)][NMeD]-Piperidide; lactam N-11) | 18 nM
CC[C@H](C)[C@@H]1NC(=O)[C@H](CC(C)C)N(C)C(=O)C[C@@H](C(=O)N2CCCCC2)N(C)C(=O)[C@H](C2CCCC2)N(C)C(=O)C2(CCCC2)NC(=O)[C@@H]2CCCN2C(=O)[C@H](CCc2ccc3cccnc3c2)NC(=O)CN(C)C(=O)[C@H](CC2CCCCC2)N(C)C(=O)[C@@H]2CCN2C(=O)[C@H](C)N(C)C1=O [US20240148821, Compound 2077] ([NMeL]I[NMeA][Aze][NMeCha][Sar][X44]P[Ac5c][NMeGly(cPent)][NMeD]-Piperidide; lactam N-11) | 47 nM
CC[C@H](C)[C@@H]1NC(=O)[C@H](CC(C)C)N(C)C(=O)C[C@@H](C(=O)N2CCCCC2)N(C)C(=O)[C@H](C2CCCC2)N(C)C(=O)C2(CCCC2)NC(=O)[C@@H]2CCCN2C(=O)[C@H](CCc2ccc(C(F)(F)F)nc2)NC(=O)CN(C)C(=O)[C@H](CC2CCCCC2)N(C)C(=O)[C@@H]2CCN2C(=O)[C@H](C)N(C)C1=O [US20240148821, Compound 2078] ([NMeL]I[NMeA][Aze][NMeCha][Sar][X96]P[Ac5c][NMeGly(cPent)][NMeD]-Piperidide; lactam N-11) | 11 nM
CC[C@H](C)[C@@H]1NC(=O)[C@H](C)N(C)C(=O)C[C@@H](C(=O)N2CCCCC2)N(C)C(=O)[C@H](C2CCCCC2)N(C)C(=O)C2(CCCC2)NC(=O)C2CCCN2C(=O)[C@H](CCc2cc(Cl)c(Cl)c(OC)c2)NC(=O)CN(C)C(=O)[C@H](C(=O)CC2CCCCC2)N(C)C(=O)CN(C)C(=O)CN(C)C1=O (stereo not given in full) [US20240148821, Compound 2081] ([NMeA]I[Sar][Sar][NMeGly(COCH2cHex)][Sar][X54][ξP][Ac5c][NMeChg][NMeD]-Piperidide; lactam N-11) | 2 nM
CC[C@H](C)[C@@H]1NC(=O)[C@H](CC(C)C)N(C)C(=O)C[C@@H](C(=O)N2CCCCC2)N(C)C(=O)[C@H](C2CCCC2)N(C)C(=O)C2(CCCC2)NC(=O)[C@@H]2CCCN2C(=O)[C@H](CCc2ccc(C(F)F)c(F)c2)NC(=O)CN(C)C(=O)[C@H](CC2CCCCC2)N(C)C(=O)[C@@H]2CCN2C(=O)[C@H](C)N(C)C1=O [US20240148821, Compound 2085] ([NMeL]I[NMeA][Aze][NMeCha][Sar][X63]P[Ac5c][NMeGly(cPent)][NMeD]-Piperidide; lactam N-11) | 2.9 nM
